Data from PMC12320245 (International Journal of Biological Sciences, 2025).

Experiments:
[1] = test system: cultured cortical astrocytes; assay: Intracellular cAMP levels in cultured astrocytes; format: cell-based; settings: 1-hour treatment, 0.1 to 10 µM, particularly at 1 μM and 10 μM
[2] = test system: primary hippocampal neurons; assay: Scratch injury: cAMP ELISA; format: cell-based, rat; settings: 10 μM AMX immediately after scratch, 6 hours post-injury
Description: Primary hippocampal neurons were obtained from embryonic day 18 (E18) Sprague-Dawley rat embryos. Pregnant rats were anesthetized using 2-3% isoflurane in a gas mixture of 70% nitrous oxide and 30% oxygen. Following euthanasia, the hippocampi were carefully dissected, minced, and enzymatically dissociated using TrypLE Express (Gibco, NY, USA) for 10 minutes at 37°C. The tissue was further mechanically dissociated using fire-polished glass pipettes, and the resulting cell suspension was filtered through a 70 μm cell strainer to remove debris. Neurons were seeded at a density of 3 × 10^5 cells per well in 24-well plates pre-coated with poly-L-lysine (Sigma-Aldrich, Saint Louis, MO, USA). Cells were maintained in neurobasal medium supplemented with B-27 (Thermo Fisher Scientific, Waltham, MA, USA), GlutaMAX (Gibco), and penicillin-streptomycin. The cultures were incubated at 37.5°C in a humidified atmosphere containing 5% CO₂. After seven days of growth, neurons were fixed with 4% paraformaldehyde (PFA) for 15 minutes at room temperature and subsequently stored at 4°C until their further use for immunostaining. A scratch injury model was used to mimic TBI in vitro. […] After the treatment period, neuronal damage and recovery were assessed using appropriate evaluation methods. […]

[3] = test system: primary hippocampal neurons; assay: Scratch injury: p-PKA immunofluorescence; format: cell-based, rat; settings: 24 hours after scratch injury
Description: (§1) Primary hippocampal neurons were obtained from embryonic day 18 (E18) Sprague-Dawley rat embryos. Pregnant rats were anesthetized using 2-3% isoflurane in a gas mixture of 70% nitrous oxide and 30% oxygen. Following euthanasia, the hippocampi were carefully dissected, minced, and enzymatically dissociated using TrypLE Express (Gibco, NY, USA) for 10 minutes at 37°C. The tissue was further mechanically dissociated using fire-polished glass pipettes, and the resulting cell suspension was filtered through a 70 μm cell strainer to remove debris. Neurons were seeded at a density of 3 × 10^5 cells per well in 24-well plates pre-coated with poly-L-lysine (Sigma-Aldrich, Saint Louis, MO, USA). Cells were maintained in neurobasal medium supplemented with B-27 (Thermo Fisher Scientific, Waltham, MA, USA), GlutaMAX (Gibco), and penicillin-streptomycin. The cultures were incubated at 37.5°C in a humidified atmosphere containing 5% CO₂. After seven days of growth, neurons were fixed with 4% paraformaldehyde (PFA) for 15 minutes at room temperature and subsequently stored at 4°C until their further use for immunostaining.
A scratch injury model was used to mimic TBI in vitro. […] After the treatment period, neuronal damage and recovery were assessed using appropriate evaluation methods. […]

[4] = test system: PDE4 in primary hippocampal neurons; assay: Scratch injury: PDE4 expression (immunocytochemistry and Western blot); format: cell-based, rat; settings: scratch-AMX vs scratch-vehicle, 24 hours after scratch
Description: as §1, with “The cultures were incubated at 37.5°C in a humidified atmosphere containing 5% CO₂. After seven days of growth, neurons were fixed with 4% paraformaldehyde (PFA) for 15 minutes at room temperature and subsequently stored at 4°C until their further use for immunostaining.” left out
(§2) A scratch injury model was used to mimic TBI in vitro. […] After the treatment period, neuronal damage and recovery were assessed using appropriate evaluation methods.
Twenty-four hours after the scratch injury, cells were lysed using RIPA buffer (IBS-BR002, iNtRON, Republic of Korea) supplemented with protease and phosphatase inhibitors (Sigma, USA). […] Protein detection was performed using a chemiluminescence bioimaging device (Amersham Imager 680, Cytiva, MA, USA), and the results were analyzed to determine protein expression levels. […]

[5] = test system: LAMP2 in primary hippocampal neurons; assay: Scratch injury: LAMP2 Western blot; format: cell-based, rat; settings: scratch-AMX vs scratch-vehicle, 24 hours after scratch
Description: as §1, with “The cultures were incubated at 37.5°C in a humidified atmosphere containing 5% CO₂. After seven days of growth, neurons were fixed with 4% paraformaldehyde (PFA) for 15 minutes at room temperature and subsequently stored at 4°C until their further use for immunostaining.” left out
as §2
Twenty-four hours after the scratch injury, cells were lysed using RIPA buffer (IBS-BR002, iNtRON, Republic of Korea) supplemented with protease and phosphatase inhibitors (Sigma, USA). […] Protein detection was performed using a chemiluminescence bioimaging device (Amersham Imager 680, Cytiva, MA, USA), and the results were analyzed to determine protein expression levels.

[6] = neuroinflammation or brain injury; cited from earlier work
[7] = test system: BV2 cells; settings: NF-κB/STAT3 downregulation; cited from earlier work

CC(C)c1ccc2oc3nc(N)c(C(=O)O)cc3c(=O)c2c1 [AMX, amlexanox]
intracellular cAMP levels [1]: significantly increased intracellular cAMP levels | cAMP levels after scratch injury (ELISA) [2]: restored cAMP and p-PKA levels | phosphorylation of PKA (immunofluorescence, Figure S2E-J) [3]: increasing the phosphorylation of PKA | PDE4 levels [4]: significantly reduced | LAMP2 expression [5]: significantly preserved | crossing of the BBB [6]: can cross the BBB under pathological conditions | LPS-induced microglial activation [7]: attenuated LPS-induced microglial activation
